Data on two molecules can be found in patent publication US8518889B2, “Method of treating cancer with antibodies against long-form leukotriene B4 receptor BLT2” (Korea University Research & Business Foundation, priority 2007, dated 2013).

The test system of one assay is 253J-BV cells. Kind of assay: cell cycle analysis (PI, flow cytometry). Type of assay: cell-based, human. The settings on record: 48 hr, RPMI 1640 with 0.5% FBS. The method, then:
The cells grown in 6-well plate were stimulated with 5 μM and 10 μM LY255283, 1 μM U75302 for 48 h in RPMI 1640 containing 0.5% FBS. The cells which were collected by brief trypsinization were fixed overnight with 70% ethanol at 4° C. The cells were resuspended in PBS containing RNase A (100 μg/ml) and incubated for 30 min at 37° C. The cells were stained with propidium iodide (50 μg/ml) (Sigma). Acquisition and analysis was performed by FACS using Cell Quest Alias software (BD Bioscience). […] Cells were treated with BLT antagonist for 48 hours and the cell cycle population was measured by flow cytometry. In brief, cells were plated in 6 well plate and then treated with LY255283, U75302 for 48 hr. At the end of the treatment, the cells were harvested and then centrifuged. The cells fixed in ice-cold 70% ethanol for 24 hr and centrifuged. The pellet were resuspended in 0.5 ml phosphate-buffered saline (PBS) and incubated with Pl 1 mg/ml treatment for 15 min.

The test system of assay [1] is breast cancer cell line, T47D (ER+), MDA-MB-468 (ER−), MDA-MB-453 (ER−). Kind of assay: cell growth assay (trypan blue exclusion). The format is cell-based, human. The settings on record: LY255283 5, 10 μM; U75302 0.5, 1 μM; 24, 48, 72 hr. As for the experimental part:
(§1) To investigate the effect of BLT2 antagonist, LY255283 and BLT1 antagonist, U75302 on growth of breast cancer, breast cancer cell line, T47D (ER+), MDA-MB-468 (ER−), MDA-MB-453 (ER−) and normal IMR-90 cells were used. Cells were treated with LY255283 and U75302 in a dose-dependent manner and analyzed for cell number using the trypan blue dye exclusion method. Cells were plated at a density of 0.5×10^5 or 5×10^5 cells/well on 12-well plate. After 24 h, cells were incubated in media containing 0.5% serum for 3 hr. Then, cells were treated with U75302 (0.5, 1 μM), LY255283 (5, 10 μM) and incubated at 37° C. for indicated time (24, 48, and 72 hr). To measure the growth of cell, the treated cells were then trypsinized at each time point, and counted by the trypan-blue exclusion method

The next assay concerns normal IMR-90 cells. Kind of assay: cell growth assay (trypan blue exclusion). Type of assay: cell-based. The settings on record: LY255283 5, 10 μM; U75302 0.5, 1 μM; 24, 48, 72 hr. As for the experimental part: as §1
For assay [2], the system named is MDA-MB-468 cells. Type of assay: cell-based, human. The settings on record: 48 h. As for the experimental part: Cells were plated a density of 2×10^6 cells/plate in 100-mm plate. After 24 hr, cells incubated in media containing serum-free for 3 hr. Then, cells were treated with U75302 (0.5, 1 μM), LY255283 (5, 10 μM) and incubated at 37° C. for 48 h. Both attached and detached cells were collected and resuspended in a lysis buffer (20 mM Tris/HCl, pH 8.0, 0.1 mM EDTA, 1% SDS, and 0.5 mg/ml proteinase K) and then incubated at 50° C. for overnight. DNA was extracted with phenol/chloroform.

The test system of assay [3] is MDA-MB-468 cells. Put plainly: Western blotting of caspase-9 and PARP. The format is cell-based, human. Particulars: 48 hr. As for the experimental part: Cells were plated a density of 2×10^6 cells/plate in 100-mm plate. After 24 h, cells incubated in media containing serum-free for 3 hr. Then, cells were treated with U75302 (0.5, 1 μM), LY255283 ([…]) and incubated at 37° C. for 48 hr. […] Proteins were separated by SDS-PAGE and transferred onto a nitrocellulose membrane. The membrane was blocked with 5% nonfat dry milk in Tris-buffered saline and then incubated with primary antibodies against caspase-9, PARP for 1 h at room temperature. Blots were developed with a peroxidase-conjugated secondary antibody and proteins were visualized by enhanced chemiluminescence (ECL) procedures (Amersham, USA) according to the manufacturer's recommendation
(In general: Immunoblotting shows a protein as a band on a membrane.)

The subject of the next assay is Rat2-HO6 cells. Kind of assay: experimental metastasis assay, lung metastasis driven by H-Ras^V12. Type of assay: in vivo, nude mice. The settings on record: intraperitoneal 3 and 5 days after cell injection, 21 days. As for the experimental part: All experimental animals used in this study were treated according to guidelines approved by the Institutional Animal Care and Use Committee of Korea University. Female nude mice (Charles River, Wilmington, Mass.), four-weeks-old at the time of injection, were used in the experimental metastasis assay. Rat-2, Rat2-HO6, and Rat2-BLT2 cells (5×10^5 cells) were prepared for injection from cultures in logarithmic growth at the time of harvest. The cells were briefly treated with 0.025% trypsin and 0.1% EDTA in Hanks' balanced salt solution and quickly removed from trypsin by centrifugation, resuspended in saline containing LTB4, and injected within 1 hr in 0.1 ml into the lateral tail vein with a 26-gauge needle. For inhibitor experiments, U75302 and LY255283 (0.25 mg/kg for BLT1 antagonist and 2.5 mg/kg for BLT2 antagonist) was injected intraperitoneal ˜3 and 5 days after injection of cells that were pretreated with inhibitors. […]
In vivo lung metastasis driven by H-Ras^V12 (panel B of FIG. 2a) or BLT2 (panel C of FIG. 2a) was reduced by BLT2 inhibition (LY255283) based on the macroscopic and histologic appearance of lung. […] Mice were euthanized 21 days after cell injection, and the number of lung metastasis nodules and weight of lung was analyzed in each group. […] Metastasis survival was analyzed in Kaplan-Meyer plots.

As for `CCc1cc(C(C)=O)c(O)cc1OCCCCCC(C)(C)c1nnn[nH]1` [LY255283, 1-[5-ethyl-2-hydroxy-4-[[6-methyl-6-(1H-tetrazol-5-yl)heptyl]oxy]phenyl]-ethanone], the cell cycle result in the assay on 253J-BV cells is “arresting cell cycle at sub-G1 in dose dependent manner”. In addition, the “growth of breast cancer cell lines” value in assay [1] is reported as “significantly inhibits the growth”. Besides, in the assay on normal IMR-90 cells, the “growth of normal IMR-90 cells” value is recorded as “did not affect”. For the same molecule, in the assay with MDA-MB-468 cells [2], the DNA fragmentation entry is “laddering pattern characteristic of apoptosis”. The “activation of caspase-9 and PARP cleavage” value with MDA-MB-468 cells [3] is “dose-dependent activation of caspase-9 and cleavage of PARP”. In addition, the “lung metastasis driven by H-Ras^V12” value in the assay on Rat2-HO6 cells is “significantly reduced”.
Consider `CCCCC/C=C\C[C@@H](O)/C=C/c1cccc(C[C@@H](O)CCCCO)n1` [U75302], for which the cell cycle result in the assay with 253J-BV cells is given as “not effect”. Also, in assay [1], the “growth of breast cancer cell lines” value is on record as “had no effect on growth”. The “growth of normal IMR-90 cells” value with normal IMR-90 cells is on record as “had no effect on growth”. Also, in the assay with MDA-MB-468 cells [2], the DNA fragmentation result is “did not induce DNA fragmentation”. Moreover, in the assay on MDA-MB-468 cells [3], the “activation of caspase-9 and PARP cleavage” value is “did not affect on caspase-9 activation and PARP cleavage”. In the assay on Rat2-HO6 cells, the “lung metastasis driven by H-Ras^V12” value is reported as “caused no suppression on metastasis”.
